Consider two compounds from ChEMBL document CHEMBL1122620, “Inhibition of renin by substrate analogue inhibitors containing the olefinic amino acid 5(S)-amino-7-methyl-3(E)-octenoic acid” (J Med Chem, 1984).

Each structure is given as a SMILES string. Where a SMILES comes first, the peptide text is derived from it.

Usually Ki stands for the dissociation constant of the complex between target and ligand, obtained from inhibition or displacement. Low readings indicate a stronger hold on the target, high ones a looser hold on the target.

The target in one assay is T1, Renin (Homo sapiens, UniProt P00797).
T1 sequence (P00797 whole entry): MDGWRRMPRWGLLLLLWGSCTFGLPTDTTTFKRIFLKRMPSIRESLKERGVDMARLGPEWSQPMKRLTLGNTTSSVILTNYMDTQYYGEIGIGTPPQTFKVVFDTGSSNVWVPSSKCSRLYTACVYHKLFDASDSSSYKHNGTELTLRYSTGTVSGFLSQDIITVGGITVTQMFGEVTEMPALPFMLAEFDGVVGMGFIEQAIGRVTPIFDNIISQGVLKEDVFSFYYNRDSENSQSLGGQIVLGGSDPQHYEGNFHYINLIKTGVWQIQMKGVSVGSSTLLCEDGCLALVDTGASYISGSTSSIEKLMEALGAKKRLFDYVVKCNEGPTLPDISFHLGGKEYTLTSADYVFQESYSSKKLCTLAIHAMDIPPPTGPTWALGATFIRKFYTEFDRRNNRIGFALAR
In words: Compound was evaluated for competitive Renin inhibitory activity against human amniotic renin; Competitive.

In the next assay the target is Renin (Sus scrofa). In words: Compound was evaluated for Non-competitive Renin inhibitory activity against hog kidney renin; Non competitive.

On Renin, `COC(=O)[C@H](Cc1ccccc1)NC(=O)[C@@H](NC(=O)CNC(=O)[C@@H](N)CC(C)C)C(C)C` (H-LGVF-OMe) displayed a Ki of 1000 µM.

The compound `COC(=O)[C@H](Cc1ccccc1)NC(=O)[C@@H](NC(=O)[C@H](CC(C)C)NC(=O)[C@@H](N)CC(C)C)C(C)C` (H-LLVF-OMe) gave a Ki on Renin (Sus scrofa) of 500 µM.
